Laboratory results: patent US11866458B2, “Panaxadiol glycoside derivative and preparation method and application thereof” (SUZHOU JI ER BIOLOGICAL MEDICINE CO., LTD., priority 2018, dated 2024)
Marks after values point to notes of the source that are not given here.

Key:
[1] = tested on: mouse asthma model induced by OVA; assay: Asthma induced by ovalbumin in Balb/c mice: IgE level in serum by ELISA; type: in vivo; settings: oral
[2] = tested on: inflammatory cells in bronchoalveolar lavage fluid of mice; assay: Determination of inflammatory cells in bronchoalveolar lavage fluid of mice (OVA asthma model); type: in vivo, BALB/C mice; parameters: unit not given here
Experimental: 144 6-week-old BALB/C mice (18-20 g) were divided into 24 groups: control group, placebo group, dexamethasone group (3 mg/kg) and the drug groups. There were 6 in each group. The control group was given normal saline without any treatment. The other groups were sensitized by intraperitoneal injection of OVA 20 μg and aluminum hydroxide 200 μL PBC (2 mg, prepared into emulsion). […] On day 21, 22 and 23, the therapeutic agent (i.e. 3 mg/kg dexamethasone in the positive control group and oral administration in the drug group) was given orally. From day 17 to 23, PBS was given to the control group and placebo group respectively, PBS (without OVA) was given to the control group. On day 0 and day 14, the normal saline was nebulized for 30 minutes to remove the aluminum hydroxide on day 21, 22 and 23 See in Table 2.

ICR mice [3] = assay: Blood routine test after 6 days of intragastric administration; settings: for WBC: 1 hour after last dose
Experimental: Mice were intragastric administration for 6 consecutive days, and sufficient blood samples were taken for blood routine test 1 hour after the last dose.

ICR mice [4] = assay: Blood glucose of caudal vein after 6 days of intragastric administration; settings: for Blood glucose: fasted, caudal vein
Experimental: The mice were intragastric administration for 6 consecutive days, fasting was started at about 8:00 in the morning on the sixth day, and blood glucose in caudal vein was measured at about 4:00 in the next day.

[5] = after inhalation; cited from earlier work
[6] = tested on: COPD rats induced by smoke exposure; assay: COPD induced by smoke exposure in rats: lung function FEV0.2/FVC; type: in vivo, Wistar rats; settings: for FEV2/FVC % (FEV0.2/FVC %, forced expiratory index within 200 ms): 180 days; for effect in COPD rats compared with inhaled budesonide: high dose group, oral
[7] = 3 mg/kg, oral (positive control)
[8] = 1.8 mg/kg, intragastric, 6 days
[9] = Table 1-1 (1st time), 20 mg/kg, 24 hours after last OVA stimulation
[10] = 225 mg/kg, intragastric, 6 days

| Compound | Concentration of IgE in serum [1, 9] [ng/mL] | Concentration of IgE in serum ([1]; Table 1-2 (2nd time), 15 mg/kg) [ng/mL] | Concentration of IgE in serum ([1]; Table 1-2 (2nd time), 30 mg/kg) [ng/mL] | Concentration of IgE in serum ([1]; Table 1-2 (2nd time), 60 mg/kg) [ng/mL] | Acidic cells in bronchoalveolar lavage fluid ([2]; 2 mg/kg, oral) | Neutral cells in bronchoalveolar lavage fluid ([2]; 2 mg/kg, oral) | lymphocyte in bronchoalveolar lavage fluid ([2]; 2 mg/kg, oral) | Acidic cells in bronchoalveolar lavage fluid ([2]; 20 mg/kg, oral) | Neutral cells in bronchoalveolar lavage fluid ([2]; 20 mg/kg, oral) | Total inflammatory cells in bronchoalveolar lavage fluid ([2]; 20 mg/kg, oral) | lymphocyte in bronchoalveolar lavage fluid ([2]; 20 mg/kg, oral) | Acidic cells in bronchoalveolar lavage fluid ([2]; 200 mg/kg, oral) | Neutral cells in bronchoalveolar lavage fluid ([2]; 200 mg/kg, oral) | Total inflammatory cells in bronchoalveolar lavage fluid ([2]; 200 mg/kg, oral) | lymphocyte in bronchoalveolar lavage fluid ([2]; 200 mg/kg, oral) | FEV2/FVC % (FEV0.2/FVC %, forced expiratory index within 200 ms) ([6]; 20 mg/kg oral) [%] | FEV2/FVC % (FEV0.2/FVC %, forced expiratory index within 200 ms) ([6]; 40 mg/kg oral) [%] | FEV2/FVC % (FEV0.2/FVC %, forced expiratory index within 200 ms) ([6]; 80 mg/kg oral) [%] | effect in COPD rats compared with inhaled budesonide [6] | other results |
| --- | --- | --- | --- | --- | --- | --- | --- | --- | --- | --- | --- | --- | --- | --- | --- | --- | --- | --- | --- | --- |
| CC(=O)OCC(=O)[C@@]1(O)[C@H](C)C[C@H]2[C@@H]3CCC4=CC(=O)C=C[C@]4(C)[C@@]3(F)[C@@H](O)C[C@@]21C [Dexamethasone acetate tablets, Dexamethasone acetate] | – | – | – | – | – | – | – | – | – | – | – | – | – | – | – | – | – | – | – | Concentration of IgE in serum ([1]; Table 1-1 (1st time), 0.6 mg/kg, 24 hours after last OVA stimulation): 1131.05 ± 211.85 ng/mL; Concentration of IgE in serum ([1]; Table 1-2 (2nd time), 0.6 mg/kg): 1367.07 ± 103.80 ng/mL; Acidic cells in bronchoalveolar lavage fluid [2, 7]: 7.49 ± 5.25; Neutral cells in bronchoalveolar lavage fluid [2, 7]: 9.64 ± 5.16; Total inflammatory cells in bronchoalveolar lavage fluid [2, 7]: 36.12 ± 14.89; lymphocyte in bronchoalveolar lavage fluid [2, 7]: 8.46 ± 5.73; leukocyte count compared to blank control group (ICR mice [3]; 1.8 mg/kg): decreased significantly; lymphocyte percentage compared to blank control group (ICR mice [3]; 1.8 mg/kg): decreased significantly; monocyte percentage compared to blank control group (ICR mice [3]; 1.8 mg/kg): increased significantly; neutrophil percentage compared to blank control group (ICR mice [3]; 1.8 mg/kg): increased significantly; Ba % (ICR mice [3]; [8]): 0.04 ± 0.03%; Eo % (ICR mice [3]; [8]): 0.09 ± 0.02%; Ly % (ICR mice [3]; [8]): 42.59 ± 28.17 %; Mo % (ICR mice [3]; [8]): 12.08 ± 6.28 %; Ne % (ICR mice [3]; [8]): 45.17 ± 16.22 %; WBC (ICR mice [3]; [8]): 1.26 ± 0.49** 10^2/mm^3; blood glucose in mice compared with blank control group (ICR mice [4]; 1.8 mg/kg): increase blood glucose; Blood glucose (ICR mice [4]; [8]): 5.78 ± 0.36 mmol/L |
| CC(C)C(=O)OCC(=O)[C@@]12O[C@H](C3CCCCC3)O[C@@H]1C[C@H]1[C@@H]3CCC4=CC(=O)C=C[C@]4(C)[C@H]3[C@@H](O)C[C@@]12C [ciclesonide] | – | – | – | – | – | – | – | – | – | – | – | – | – | – | – | – | – | – | – | bioavailability in vivo [5]: less than 1% |
| CC(C)=CCC[C@](C)(O[C@@H]1O[C@H](CO)[C@@H](O)[C@H](O)[C@H]1O)[C@H]1CC[C@]2(C)[C@@H]1[C@H](O)C[C@@H]1[C@@]3(C)CC[C@H](O)C(C)(C)[C@@H]3CC[C@]12C [CK, ginsenoside compound K, reference compound] | 1701.85 ± 284.66 | 1921.25 ± 160.12 | 1676.69 ± 159.13 | 1501.85 ± 110.68 | 32.47 ± 20.33 | 15.24 ± 7.94 | 16.81 ± 9.88 | 16.39 ± 9.67 | 8.78 ± 5.33 | 24.87 ± 20.58 | 10.15 ± 7.34 | 13.12 ± 7.38 | 4.32 ± 3.16 | 22.38 ± 12.69 | 7.42 ± 4.53 | 61.29 ± 11.76 | 70.89 ± 10.56 | 80.24 ± 13.73 | superior to budesonide | Ba % (ICR mice [3]; [10]): 0.01 ± 0.02%; Eo % (ICR mice [3]; [10]): 0.75 ± 0.71%; Ly % (ICR mice [3]; [10]): 62.54 ± 30.29%; Mo % (ICR mice [3]; [10]): 6.01 ± 8.91%; Ne % (ICR mice [3]; [10]): 31.39 ± 2.72%; hematological related changes (ICR mice [3]; [10]): no hematological related changes; WBC (ICR mice [3]; [10]): 4.96 ± 2.14 10^2/mm^3; blood glucose related changes (ICR mice [4]; [10]): no blood glucose related changes; Blood glucose (ICR mice [4]; [10]): 3.18 ± 0.28 mmol/L |
| CC(C)=CCC[C@](C)(O[C@H]1OC(CO)[C@@H](O)[C@H](O)C1O)C1CC[C@]2(C)C1C(=O)CC1[C@@]3(C)CC[C@H](O)C(C)(C)C3CC[C@]12C (stereo partly drawn) [ID, 3β-hydroxyl-20(S)—O-α-D-mannopyranosyl dammarane-24-ene-12-one] | 1336.96 ± 211.85 | 1571.67 ± 134.04 | 1427.83 ± 164.28 | 1264.95 ± 127.60 | 34.15 ± 18.88 | 13.18 ± 7.76 | 14.38 ± 8.71 | 15.17 ± 8.34 | 6.26 ± 4.73 | 29.46 ± 13.56 | 8.92 ± 6.89 | 6.79 ± 3.87 | 4.39 ± 3.13 | 13.81 ± 6.76 | 4.16 ± 317 | 66.28 ± 13.54 | 75.23 ± 10.71 | 86.34 ± 8.60 | superior to budesonide | content of IgE in mice serum (conclusion in words) ([1]; model of mouse asthma induced by OVA, samples): significantly reduce; therapeutic effect on bronchial asthma induced by OVA ([1]; mouse): obvious therapeutic effect; Total inflammatory cells in bronchoalveolar lavage fluid ([2]; 2 mg/kg, oral): 46.39 ± 22.74 |
| CC(C)=CCC[C@](C)(O[C@@H]1OC(CO)[C@@H](O)[C@H](O)C1O)C1CC[C@]2(C)C1/C(=N\O)CC1[C@@]3(C)CC/C(=N\O)C(C)(C)C3CC[C@]12C (stereo partly drawn) [IVA, 20(S)—O-β-D-glucopyranosyl dammarane-3,12-hydroxyl imino-24-ene-12-one] | 1358.27 ± 248.70 | 2026.13 ± 273.15 | 1927.60 ± 151.61 | 1723.86 ± 167.59 | 29.09 ± 4.83 | 9.15 ± 5.68 | 15.35 ± 9.23 | 15.83 ± 2.88 | 7.38 ± 3.09 | 32.46 ± 17.21 | 5.24 ± 3.34 | 4.45 ± 2.14 | 6.17 ± 4.09 | 14.69 ± 5.77 | 4.19 ± 3.48 | 66.25 ± 11.49 | 75.98 ± 9.26 | 88.33 ± 12.49 | superior to budesonide | – |
